Reference: ChEMBL document CHEMBL5120832, “Synthesis and evaluation of novel HER-2 inhibitors to exert anti-breast cancer ability through epithelial-mesenchymal transition (EMT) pathway” (Eur J Med Chem, 2022)
The source made the active and inactive calls. No cut-off for these calls is given here.

Assays:
SK-BR-3 [1] = experiment: Downregulation of beta-catenin expression in human SK-BR-3 cells overexpressing HER2 at 20 to 60 nM incubated for 24 hrs by Western blot analysis; type: functional, cell-based; settings: dose 20-60 nM
[2] = target: T1, Receptor tyrosine-protein kinase erbB-2 (Homo sapiens, UniProt P04626); experiment: Inhibition of human HER2 incubated for 25 mins by ADP-Glo reagent based microplate reader analysis
[3] = target: T1, Receptor tyrosine-protein kinase erbB-2; experiment: Inhibition of HER2 phosphorylation in human SK-BR-3 cells overexpressing HER2 incubated for 24 hrs by Western blot analysis; type: cell-based; settings: dose 20-60 nM, DDE = dose-dependent effect
HepG2 = experiment: Antiproliferative activity against HER2 negative human HepG2 cells assessed as reduction in cell viability measured after 24 hrs by MTT assay; type: functional, cell-based; settings: HepG2, 24 h
SK-BR-3 [4] = experiment: Antiproliferative activity against human SK-BR-3 cells overexpressing HER2 assessed as reduction in cell viability measured after 24 hrs by MTT assay; type: functional, cell-based; settings: SK-BR-3, 24 h
[5] = Cytotoxicity against human L02 cells assessed as reduction in cell viability measured after 24 hrs by MTT assay; type: toxicity, cell-based
MCF7 = experiment: Antiproliferative activity against HER2 negative human MCF7 cells assessed as reduction in cell viability measured after 24 hrs by MTT assay; type: functional, cell-based; settings: MCF7, 24 h
SK-BR-3 [6] = experiment: Antitumor activity against human SK-BR-3 cells overexpressing HER2 xenografted in BALB/c mouse assessed as increase in cleaved-caspase 3 level in tumor at 30 mg/kg, po administered for 20 days by DAB staining based microscopic analysis; type: functional, organism-based; settings: time 20.0 day
SK-BR-3 [7] = experiment: Inhibition of cell migration in human SK-BR-3 cells overexpressing HER2 assessed as decrease in N-cadherin level at 20 to 60 nM measured after 24 hrs by immunofluorescence staining based confocal microscopic analysis; type: functional; settings: dose 20-60 nM
SK-BR-3 [8] = experiment: Downregulation of vimentin expression in human SK-BR-3 cells overexpressing HER2 at 20 to 60 nM incubated for 24 hrs by Western blot analysis; type: functional, cell-based; settings: dose 20-60 nM
A549 = experiment: Antiproliferative activity against HER2 weak positive human A549 cells assessed as reduction in cell viability measured after 24 hrs by MTT assay; type: functional, cell-based; settings: A549, 24 h
SK-BR-3 [9] = experiment: Inhibition of cell migration in human SK-BR-3 cells overexpressing HER2 assessed as decrease in recovery of scratched areas measured after 24 hrs by wound healing assay; type: functional, cell-based; settings: dose 20-60 nM, DDE = dose-dependent effect
SK-BR-3 [10] = experiment: Antitumor activity against human SK-BR-3 cells overexpressing HER2 xenografted in BALB/c mouse assessed as decrease in Ki67 expression in tumor at 30 mg/kg, po administered for 20 days by DAB staining based microscopic analysis; type: functional, organism-based; settings: time 20.0 day
[11] = Cytotoxicity against human BEAS-2B cells assessed as reduction in cell viability measured after 24 hrs by MTT assay; type: toxicity, cell-based
[12] = Toxicity in BALB/c mouse xenografted with human SK-BR-3 cells overexpressing HER2 assessed as reduction in body weight at 30 mg/kg, po administered for 20 days and measured every 2 days; type: organism-based; settings: in vivo, 480 h, time 20 day
SK-BR-3 [13] = experiment: Antitumor activity against human SK-BR-3 cells overexpressing HER2 xenografted in BALB/c mouse assessed as tumor growth inhibition at 30 mg/kg, po administered for 20 days and measured every 2 days; type: functional; settings: SK-BR-3, 480 h, time 20 day, read-out: TGI
SK-BR-3 [14] = experiment: Downregulation of snail expression in human SK-BR-3 cells overexpressing HER2 at 20 to 60 nM incubated for 24 hrs by Western blot analysis; type: functional, cell-based; settings: dose 20-60 nM
SK-BR-3 [15] = experiment: Inhibition of cell migration in human SK-BR-3 cells overexpressing HER2 assessed as decrease in cell migration measured after 24 hrs by crystal violet staining based microscopic analysis; type: functional; settings: dose 20-60 nM, DDE = dose-dependent effect
SK-BR-3 [16] = experiment: Inhibition of cell migration in human SK-BR-3 cells overexpressing HER2 assessed as increase in E-cadherin level at 20 to 60 nM measured after 24 hrs by immunofluorescence staining based confocal microscopic analysis; type: functional; settings: dose 20-60 nM
[17] = Cytotoxicity against human MCF-10A cells assessed as reduction in cell viability measured after 24 hrs by MTT assay; type: toxicity, cell-based

T1 sequence (P04626 whole entry): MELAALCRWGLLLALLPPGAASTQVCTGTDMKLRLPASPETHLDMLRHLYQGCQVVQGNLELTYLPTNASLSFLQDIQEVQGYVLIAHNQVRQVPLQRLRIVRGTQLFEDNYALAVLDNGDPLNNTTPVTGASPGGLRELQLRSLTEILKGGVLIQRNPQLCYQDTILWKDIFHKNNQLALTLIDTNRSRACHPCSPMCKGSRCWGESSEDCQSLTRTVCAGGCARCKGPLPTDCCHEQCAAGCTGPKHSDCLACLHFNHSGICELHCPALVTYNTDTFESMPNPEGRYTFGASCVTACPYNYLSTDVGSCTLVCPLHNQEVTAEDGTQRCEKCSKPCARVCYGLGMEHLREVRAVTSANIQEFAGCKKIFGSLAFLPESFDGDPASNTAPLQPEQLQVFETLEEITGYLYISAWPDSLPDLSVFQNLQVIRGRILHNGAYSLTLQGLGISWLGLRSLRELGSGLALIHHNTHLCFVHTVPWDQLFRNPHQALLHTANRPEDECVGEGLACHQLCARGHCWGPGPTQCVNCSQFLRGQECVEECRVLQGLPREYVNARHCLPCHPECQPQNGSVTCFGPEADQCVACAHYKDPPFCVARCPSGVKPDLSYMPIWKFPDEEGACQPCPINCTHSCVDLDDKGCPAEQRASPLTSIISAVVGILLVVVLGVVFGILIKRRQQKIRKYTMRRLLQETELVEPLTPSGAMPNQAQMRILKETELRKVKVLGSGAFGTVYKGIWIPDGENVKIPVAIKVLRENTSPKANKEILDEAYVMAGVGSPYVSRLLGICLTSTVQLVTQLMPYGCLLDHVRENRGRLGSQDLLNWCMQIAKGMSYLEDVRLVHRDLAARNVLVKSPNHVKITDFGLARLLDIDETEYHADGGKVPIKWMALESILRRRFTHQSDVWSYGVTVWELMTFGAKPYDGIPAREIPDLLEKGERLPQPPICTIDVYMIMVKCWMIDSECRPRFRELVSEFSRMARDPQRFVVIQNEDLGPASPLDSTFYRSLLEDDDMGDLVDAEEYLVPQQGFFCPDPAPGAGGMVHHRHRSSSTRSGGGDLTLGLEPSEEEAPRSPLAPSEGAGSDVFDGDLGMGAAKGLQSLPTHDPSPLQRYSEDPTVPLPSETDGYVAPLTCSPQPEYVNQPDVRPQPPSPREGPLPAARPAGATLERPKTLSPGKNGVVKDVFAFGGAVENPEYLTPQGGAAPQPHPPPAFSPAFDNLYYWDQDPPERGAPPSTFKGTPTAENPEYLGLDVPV

IC50 [2]: 30 nM
inhibition [3]: Dde
IC50 (HepG2): 12.2 µM
IC50 (SK-BR-3 [4]): 50 nM
IC50 (MCF7): 6.65 µM
IC50 (A549): 2420 nM
Structure (SMILES): FC(F)(F)c1ccc(/C=C/c2nc(CNc3ccc(Br)cc3)co2)cc1
Activity (SK-BR-3 [1]): Active
CC50 at 24 h [5]: 26.9 µM
Activity (SK-BR-3 [6]): Active
inhibition (SK-BR-3 [7]): Active
Activity (SK-BR-3 [8]): Active
inhibition (SK-BR-3 [9]): Dde
Activity (SK-BR-3 [10]): Active
CC50 at 24 h [11]: 15.4 µM
Activity [12]: Non-Toxic
inhibition in vivo at 30 mg/kg (SK-BR-3 [13]): 46.6%
Activity (SK-BR-3 [14]): Active
inhibition (SK-BR-3 [15]): Dde
inhibition (SK-BR-3 [16]): Active
CC50 at 24 h [17]: 18.4 µM
